The values below come from patent US11446378B2, “Inhibitors of ephrin B1 for tumor treatment” (SANFORD HEALTH, priority 2017, dated 2022).

In the assay the test system is PC12 cells. As to the kind of experiment: PC12 neurite outgrowth assay (β-III tubulin quantification by CX7). It counts as cell-based, rat. Here is the method:
To test our hypothesis that tumor released exosomes induce neo-neurogenesis, we utilized PC12 cells, a rat pheochromocytoma cell line, as an in vitro screen. When stimulated with NGF (100 ng/ml), PC12 cells differentiate into neuron-like cells and extend neurites. We collected 10 ml of blood along with matched tumor tissue from three head and neck cancer patients (patient samples Pt1, Pt2, Pt3). We similarly collected blood from 3 healthy volunteers (Nl1, Nl2, Nl3) as well as adult tonsil tissue (TL). The tonsil was chosen as control tissue since the majority of HPV+ OPSCCs arise in the tonsil. Exosomes were purified, quantified by BCA protein assay and further validated by western blot analysis for the exosome markers CD9 and CD81 (FIG. 1E). To test whether they harbor neurite outgrowth activity, PC12 cells were treated with 3 μg exosomes, fixed 48 hours later and immunostained for β-III tubulin. Neurite outgrowth was quantified using the CellInSight™ CX7 High Content Analysis Platform and the number of neurites compared. The exosome yield from patient Pt1 was low allowing for analysis of only one replicate while quantities from Pt2 and Pt3 were sufficient for technical replicates. […]
The CellInSight CX7 High Content Analysis Platform performs automated cellular imaging for quantitative microscopy which was utilized to quantify neurite outgrowth. […]

For “NGF: recombinant nerve growth factor, positive control for PC12 neurite outgrowth”, the “neurite outgrowth (number of β-III tubulin positive neurites)” value (PC12 cells fixed 48 hours after treatment, 3 μg exosomes or NGF 100 ng/ml) is “robustly”. The “neurite outgrowth (total number of beta-III tubulin positive neurites per well)” value (PC12 cells, 24 hour stimulation, recombinant NGF 100 ng/ml set at 100%) is “robust neurite outgrowth”.
